# In PMC9525908, “α-Crystallin chaperone mimetic drugs inhibit lens γ-crystallin aggregation: Potential role for cataract prevention” (The Journal of Biological Chemistry, 2022):
# Like-named read-outs stand apart in the source and are kept apart here.
# Tests used:
# HγD = molecular target: T1, HγD (Homo sapiens, UniProt P07320); experiment: Thermal aggregation (72 °C) turbidity assay, recombinant HγD; assay type: biochemical; details: for inhibition at 125 µM / Effect on HγD at 2.0 mg/ml and 20 min: 20 min; for inhibition at 125 µM: 75 μM protein, 125 μM or less inhibitor (1.7:1); for Effect on HγD aggregation at low protein / Effect on HγD at 2.0 mg/ml and 20 min: 72 °C
# T1 construct: made in house; host or cells: E. coli BL21(DE3) pLysS, pET3d vector
# T1 sequence (P07320 1-174): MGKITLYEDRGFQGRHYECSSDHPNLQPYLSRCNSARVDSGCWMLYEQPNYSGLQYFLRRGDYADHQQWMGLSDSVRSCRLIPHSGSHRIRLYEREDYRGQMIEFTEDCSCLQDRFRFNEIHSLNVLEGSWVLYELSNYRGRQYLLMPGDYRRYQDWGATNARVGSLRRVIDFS
# Description: For refinement of the aforementioned screen, these compounds were tested at concentrations varying from 50 to 500 μM and 1.5 mg/ml concentration of recombinant HγD, human gamma S (HγS), its deamidation mutants γS_N14, γS_N76, γS_N143 and its triple mutant γSTM (Fig. 1F). In addition, other drugs and compounds that tested positive in the initial screen were also included, such as escin (E), hematein (I), citric acid (CA), docusate sodium (DS), and sennoside A (S) (Fig. S1B). […] For a review, see the study by Roskamp et al. ([38]). […] Thus, drug C and drug G emerged as the strongest antidenaturation/aggregation and potential anticataract drugs. For the mechanistic studies below these two compounds together with either drug M, chosen mostly as negative control, or the entire set of six compounds were used for comparison purpose, whereby the words “drug” or “compound” are used interchangeably in the studies later.
# For end-point assays, HγD and MγS (1 mg/ml, 100 μl) in 50 mM K3PO4 buffer (pH 7.2) in set of triplicates in transparent flat bottom 96-well plates were heated at 72 °C for 20 min in the presence and absence of selected drugs at varying concentrations. Absorbance was measured at 600 nm with a SpectraMax iD5 (Molecular Devices).
# HγD protein (2.5 mg/ml buffer A) was incubated at 72 °C for 20 min without or with 100 or 400 μM drug G or C in buffer A. Final DMSO concentration was 5% in all samples. […] Therefore, samples with and without 400 μM drug G were chosen for identification of drug G-induced miscleavage sites upon digestion with 25:1 protein:trypsin ratio (sequencing grade modified trypsin; Promega) in buffer A. After 4 h, samples were frozen at −80 °C until processed for determination of miscleavage sites using proteomics analysis. LC–MS/MS analysis was performed on an Orbitrap Eclipse mass spectrometer (Thermo Fisher Scientific) coupled with a Waters nanoAcquity UPLC system (Waters) in total 90 min run using a linear gradient range from 0 to 42% solvent B (0.1% formic acid in acetonitrile) versus solvent A (0.1% formic acid in water) at a flow rate of 300 nl/min. MS1 full mass spectra were acquired in the Orbitrap mass analyzer at the resolution of 120 K. MS/MS tandem mass spectra were generated in the ion trap mass analyzer by collision-induced dissociation of peptide ions at a normalized collision energy of 35%. The resulting MS/MS spectra were searched against human gamma D protein database using Mass Matrix software (MassMatrix, Inc) with the mass errors of 10 ppm and 0.8 Da for MS1 and MS/MS scans, respectively. The oxidation of methionine was set for variable modifications, and three miscleavages were allowed for the search.
# Final DMSO concentration was 5% including in control samples. Microtiter plates were first incubated for 10 min at 72 °C and reincubated for 10 more min. Absorbance was measured at both 10 and 20 min total incubation time.
# OPJ-MγS [1] = molecular target: T2, OPJ-MγS (Mus musculus, UniProt O35486, F10S); experiment: bis-ANS binding study, OPJ-MγS; details: 10 μM protein, 100 μM drug; read-out: Percent inhibition of binding of bis-ANS, OPJ-MγS
# T2 construct: made in house; host or cells: E. coli BL21(DE3) pLysS, pET17b vector
# T2 sequence (O35486 1-178 F10S): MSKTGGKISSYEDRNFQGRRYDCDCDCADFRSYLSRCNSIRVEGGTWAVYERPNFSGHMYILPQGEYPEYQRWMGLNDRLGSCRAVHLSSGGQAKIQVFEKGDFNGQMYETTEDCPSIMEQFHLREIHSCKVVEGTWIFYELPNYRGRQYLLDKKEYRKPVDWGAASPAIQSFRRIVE
# Description: (§1) Extrinsic fluorescence spectra were recorded using bis-ANS, a well-known surface hydrophobicity probe. The spectra were recorded between 400 and 600 nm after exciting at 390 nm. The experiment was performed on 10 μM of HγD and MγS in 50 mM K3PO4 buffer with and without our candidate drugs (100 μM). Bis-ANS stock solution was prepared in methanol whose final percentage was maintained below 7 after mixing with proteins ([81]).
# WT-HγD = molecular target: T3, WT-HγD (Homo sapiens, UniProt P07320); experiment: bis-ANS binding study, WT-HγD; details: 10 μM protein, 100 μM drug; read-out: Percent inhibition of binding of bis-ANS, WT-HγD
# T3 construct: made in house; host or cells: E. coli BL21(DE3) pLysS, pET3d vector
# T3 sequence (P07320 1-174): T1 sequence (P07320 1-174)
# Description: as §1
# OPJ-MγS [2] = molecular target: T2, OPJ-MγS; experiment: Dynamic light scattering, OPJ-MγS; assay type: biochemical; details: 400 μM drug; for Suppression of aggregate formation, DLS temperature scan: OPJ-MγS, 30–90 °C; for Percent Mass Peak 1 / Percent Mass Peak 2 / Radius (nm) Peak 1 / Radius (nm) Peak 2: OPJ-MγS 45 μM, 72 °C 20 min
# Description: Efficacy of our selected drugs in preventing the formation of protein aggregates was measured by DLS. Measurements were performed on a Wyatt DynaPro Nanostar. For DLS temperature scan experiment, pure and filtered protein samples (1 mg/ml in 10 mM sodium phosphate buffer, pH 7.2) with and without drugs (400 μM) were analyzed by DLS over a temperature range of 30 to 90 °C. Multiple scans were run for every data point, and the results represent average of individual scans. DLS spectra were also recorded for the samples at the end point of turbidity assay.
# HγS_N14D = molecular target: T4, HγS_N14D (Homo sapiens, UniProt P22914, N15D); experiment: Thermal aggregation (72 °C, 20 min) turbidity assay, HγS_N14D; assay type: biochemical; details: read-out: % Suppression; for inhibition: HγS_N14D, 75 μM protein, 72 °C 20 min
# T4 sequence (P22914 1-178 N15D): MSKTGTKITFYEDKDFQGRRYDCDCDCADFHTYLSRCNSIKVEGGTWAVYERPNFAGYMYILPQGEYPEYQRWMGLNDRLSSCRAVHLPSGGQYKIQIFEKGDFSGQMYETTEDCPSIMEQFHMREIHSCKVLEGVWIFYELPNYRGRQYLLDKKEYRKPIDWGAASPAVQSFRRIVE
# Excerpt: For a review, see the study by Roskamp et al. ([38]). […] For the mechanistic studies below these two compounds together with either drug M, chosen mostly as negative control, or the entire set of six compounds were used for comparison purpose, whereby the words “drug” or “compound” are used interchangeably in the studies later.
# [3] = HγD experiment 1, 72 °C 20 min, read-out: % Suppression
# [4] = HγD experiment 2, 72 °C 20 min, read-out: % Suppression
# [5] = read-out: % Suppression, HγD experiment 1, 72 °C 20 min
# [6] = read-out: % Suppression, HγD experiment 2, 72 °C 20 min
inhibition at 125 µM (HγD; [3]) [%],inhibition at 125 µM (HγD; [4]) [%],inhibition (HγS_N14D) [%],SMILES,inhibition at 100 µM (OPJ-MγS [1]) [%],inhibition at 100 µM (WT-HγD) [%],"Suppression of aggregate formation, DLS temperature scan (OPJ-MγS [2])",Effect on HγD aggregation at low protein (HγD; 400 μM drug),Effect on HγD at 2.0 mg/ml and 20 min (HγD; 400 μM drug),inhibition at 125 µM (HγD; [5]) [%],inhibition at 125 µM (HγD; [6]) [%],Percent Mass Peak 1 (OPJ-MγS [2]) [%],Percent Mass Peak 2 (OPJ-MγS [2]) [%],Radius (nm) Peak 1 (OPJ-MγS [2]) [nm],Radius (nm) Peak 2 (OPJ-MγS [2]) [nm],inhibition at 125 µM (HγS_N14D) [%],"Turbidity suppression (HγD; HγD 2.5 mg/ml, 400 μM drug, 72 °C 20 min, 5% DMSO)"
63,60,51,"COC(=O)/C=C/C(C)=C\C=C\C(C)=C\C=C\C=C(C)\C=C\C=C(C)\C=C\C(=O)O [drug B, Bixin]",11.83 ± 0.00091,27.86 ± 0.0009,mild suppressive effects,–,–,–,–,–,–,–,–,–,–
–,–,–,"Cc1cc(C(C#N)c2ccc(Cl)cc2)c(Cl)cc1NC(=O)c1cc(I)cc(I)c1O (stereo not drawn) [drug C, Closantel]",20.28 ± 0.00089,43.82 ± 0.0012,strong suppressive effects,worsened HγD aggregation,no baseline change,65,73,32,68,21.9,358.7,77,–
–,–,–,"CC(C)=CCCC1(C)C=Cc2c(O)c3c(c(CC=C(C)C)c2O1)OC12C(=CC4CC1C(C)(C)OC2(C/C=C(/C)C(=O)O)C4O)C3=O (stereo not drawn) [drug D, dihydrogambogic acid]",7.76 ± 0.00097,34.5 ± 0.0006,mild suppressive effects,–,–,66,78,–,–,–,–,76,–
–,–,–,"CC(C)=CCC[C@]1(C)C=Cc2c(O)c3c(c(CC=C(C)C)c2O1)O[C@]12C(=C[C@@H]4C[C@H]1C(C)(C)O[C@@]2(C/C=C(/C)C(=O)O)C4=O)C3=O [drug G, Gambogic acid]",31.62 ± 0.00057,44.64 ± 0.0011,strong suppressive effects,worsened HγD aggregation,no baseline change,69,75,100,–,79.3,–,73,markedly suppressed turbidity
38,73,48,"O=C(O)CCCCCCCCCCCC[C@@H]1C=CCC1 [drug M, Chaulmoogric acid]",3.48 ± 0.001,4.28 ± 0.0003,no suppression,–,–,–,–,0,100,53.1,5594.1,–,–

SMILES,inhibition at 125 µM (HγD; [3]) [%],inhibition at 125 µM (HγD; [4]) [%],inhibition (HγS_N14D) [%],inhibition at 100 µM (OPJ-MγS [1]) [%],inhibition at 100 µM (WT-HγD) [%],"Suppression of aggregate formation, DLS temperature scan (OPJ-MγS [2])",Effect on HγD aggregation at low protein (HγD; 400 μM drug),Effect on HγD at 2.0 mg/ml and 20 min (HγD; 400 μM drug),inhibition at 125 µM (HγD; [5]) [%],inhibition at 125 µM (HγD; [6]) [%],Percent Mass Peak 1 (OPJ-MγS [2]) [%],Percent Mass Peak 2 (OPJ-MγS [2]) [%],Radius (nm) Peak 1 (OPJ-MγS [2]) [nm],Radius (nm) Peak 2 (OPJ-MγS [2]) [nm],inhibition at 125 µM (HγS_N14D) [%],"Turbidity suppression (HγD; HγD 2.5 mg/ml, 400 μM drug, 72 °C 20 min, 5% DMSO)"
"Oc1c(Cl)cc(Cl)c(Cl)c1Cc1c(O)c(Cl)cc(Cl)c1Cl [drug X, Hexachlorophene]",61,47,–,2.45 ± 0.00075,15.16 ± 0.001,mild suppressive effects,–,–,–,–,–,–,–,–,60,–
